Experimental data taken from the NIST ThermoML archive (doi:10.1016/j.jct.2013.02.023).
Where “and” joins values, the source holds several entries; their conditions need not be identical. Equal values may be shown once.

Experiment: molar heat capacity at constant pressure
Conditions: 101.33 kPa, relaxation calorimetry - Quantum Design PPMS

O=P([O-])([O-])OP(=O)([O-])[O-].O=P([O-])([O-])OP(=O)([O-])[O-].O=P([O-])([O-])OP(=O)([O-])[O-].[Fe+3].[Fe+3].[Fe+3].[Fe+3] [iron(III) diphosphate]
molar heat capacity at constant pressure
Conditions	Crystal 2	Crystal 3
1 K	–	0.08105 J/K/mol
1.909 K	–	0.1843 J/K/mol
2 K	–	0.2057 J/K/mol
2.045 K	–	0.2088 J/K/mol
2.21 K	–	0.2418 J/K/mol
2.506 K	–	0.3014 J/K/mol
2.763 K	–	0.3632 J/K/mol
3 K	–	0.4233 J/K/mol
3.058 K	–	0.4449 J/K/mol
3.392 K	–	0.553 J/K/mol
3.803 K	–	0.7103 J/K/mol
4 K	–	0.8002 J/K/mol
4.207 K	–	0.9081 J/K/mol
4.685 K	–	1.188 J/K/mol
5 K	–	1.41 J/K/mol
5.203 K	–	1.56 J/K/mol
5.797 K	–	2.097 J/K/mol
6 K	–	2.314 J/K/mol
6.489 K	–	2.871 J/K/mol
7 K	–	3.559 J/K/mol
7.172 K	–	3.81 J/K/mol
7.975 K	–	5.084 J/K/mol
8 K	–	5.127 J/K/mol
8.875 K	–	6.71 J/K/mol
9 K	–	6.952 J/K/mol
10 K	–	9.006 J/K/mol
10.03 K	–	9.074 J/K/mol
11 K	–	11.23 J/K/mol
11.16 K	–	11.61 J/K/mol
12 K	–	13.56 J/K/mol
12.39 K	–	14.49 J/K/mol
13 K	–	15.98 J/K/mol
13.77 K	–	17.87 J/K/mol
14 K	–	18.43 J/K/mol
15 K	–	20.84 J/K/mol
15.31 K	–	21.61 J/K/mol
16 K	–	23.37 J/K/mol
17 K	–	26.01 J/K/mol and 26.02 J/K/mol
18 K	–	28.75 J/K/mol
18.85 K	–	31.22 J/K/mol
19 K	–	31.74 J/K/mol and 31.7 J/K/mol
19.52 K	–	33.09 J/K/mol
20 K	–	34.42 J/K/mol
20.61 K	–	36.2 J/K/mol
20.9 K	–	37.11 J/K/mol
21.09 K	–	37.43 J/K/mol
21.6 K	–	38.93 J/K/mol
21.81 K	–	39.43 J/K/mol
22.11 K	–	40.45 J/K/mol
22.85 K	–	42.81 J/K/mol
23.25 K	–	44.02 J/K/mol
23.87 K	–	46 J/K/mol
23.89 K	–	46.12 J/K/mol
24.08 K	–	46.85 J/K/mol
24.28 K	–	47.45 J/K/mol
24.47 K	–	48.12 J/K/mol
24.67 K	–	48.81 J/K/mol
24.88 K	–	49.5 J/K/mol
25 K	–	49.88 J/K/mol
25.08 K	–	50.12 J/K/mol
25.28 K	–	50.75 J/K/mol
25.47 K	–	51.26 J/K/mol
25.67 K	–	51.84 J/K/mol
25.81 K	–	52.19 J/K/mol
25.87 K	–	52.46 J/K/mol
26.07 K	–	53.07 J/K/mol
26.27 K	–	53.83 J/K/mol
26.48 K	–	54.56 J/K/mol
26.69 K	–	55.35 J/K/mol
26.9 K	–	56.09 J/K/mol
27.11 K	–	56.75 J/K/mol
27.3 K	57.27 J/K/mol	57.27 J/K/mol
27.32 K	57.27 J/K/mol	–
27.52 K	56.92 J/K/mol	–
27.7 K	56.9 J/K/mol	–
27.91 K	56.91 J/K/mol	–
28.04 K	57.08 J/K/mol	–
28.11 K	57.21 J/K/mol	–
28.31 K	57.58 J/K/mol	–
28.53 K	58.14 J/K/mol	–
28.63 K	58.29 J/K/mol	–
28.71 K	58.58 J/K/mol	–
28.91 K	59.09 J/K/mol	–
28.99 K	59.36 J/K/mol	–
29.12 K	59.63 J/K/mol	–
29.32 K	60.15 J/K/mol	–
29.52 K	60.68 J/K/mol	–
30 K	62 J/K/mol	–
30.01 K	62.04 J/K/mol	–
30.53 K	63.41 J/K/mol	–
31.05 K	65.12 J/K/mol	–
31.57 K	66.61 J/K/mol	–
31.8 K	67.25 J/K/mol	–
32.07 K	68.15 J/K/mol	–
32.58 K	69.63 J/K/mol	–
33.05 K	71.25 J/K/mol	–
33.6 K	73.01 J/K/mol	–
34.1 K	74.7 J/K/mol	–
34.61 K	76.5 J/K/mol	–
35 K	77.84 J/K/mol	–
35.09 K	78.15 J/K/mol	–
35.33 K	78.91 J/K/mol	–
35.63 K	80.11 J/K/mol	–
36.09 K	81.71 J/K/mol	–
36.62 K	83.72 J/K/mol	–
37.1 K	85.44 J/K/mol	–
37.66 K	87.47 J/K/mol	–
38.15 K	89.5 J/K/mol	–
38.62 K	91.24 J/K/mol	–
39.17 K	93.41 J/K/mol	–
39.24 K	93.52 J/K/mol	–
39.64 K	95.31 J/K/mol	–
40 K	96.72 J/K/mol	–
40.17 K	97.41 J/K/mol	–
40.66 K	99.59 J/K/mol	–
41.19 K	101.8 J/K/mol	–
41.66 K	103.8 J/K/mol	–
42.22 K	106.31 J/K/mol	–
42.39 K	107.06 J/K/mol	–
42.6 K	108.05 J/K/mol	–
42.8 K	108.92 J/K/mol	–
43 K	109.89 J/K/mol	–
43.2 K	110.79 J/K/mol	–
43.41 K	111.83 J/K/mol	–
43.59 K	112.41 J/K/mol	–
43.6 K	112.72 J/K/mol	–
43.8 K	113.72 J/K/mol	–
44.01 K	114.89 J/K/mol	–
44.2 K	115.83 J/K/mol	–
44.41 K	116.9 J/K/mol	–
44.61 K	118.08 J/K/mol	–
44.81 K	119.19 J/K/mol	–
45 K	120.36 J/K/mol	–
45.02 K	120.42 J/K/mol	–
45.22 K	121.8 J/K/mol	–
